Data as given in patent publication US20230256051A1, “MODIFIED KISSPEPTIN RECEPTOR AGONISTS FOR FATTY LIVER DISEASE” (priority 2020, published 2023).
Entries after “also recorded” stand apart in the source; their conditions may differ.

Experiments:
[1] = tested on: primary mouse hepatocytes; experiment: FFA-loaded isolated primary mouse hepatocytes treated with KP-10 or TAK; details: KP 100 nM or TAK 3 nM; 150 µM palmitate and 150 µM oleate; wild-type hepatocytes; n=4
Experimental: (n=4) * p < 0.05; One-way ANOVA followed by Dunnett’s post-hoc test.
Primary hepatocytes from mice were isolated according to known methods. Mice (wild-type, C57BL6) or LKO and littermate controls were anesthetized using a ketamine/xylazine mixture (Henry Schein™). The liver was cannulated via the hepatic portal vein and first perfused with 37° C. Kreb’s Ringer solution containing EGTA for 10 minutes. After the first wash, a second Kreb’s Ringer solution containing CaCl2 and LIBERASE (Roche™) was used until the liver was thoroughly perfused. Hepatocytes were filtered through a gauze mesh and resuspended in William’s Media E (Sigma™) with 10 % FBS (Sigma™), 200 nM dexamethasone (Sigma™), 5 mM pen/strep (Fisher™), 2 mM L-glutamine (Fisher™). Cells were plated at a density of 3 × 10^5 on 6-well collagen-coated plates (Sigma™). Hepatocytes were left to recover overnight and then were serum starved for 3 hours prior to experiments. For free fatty acid (FFA) loading, 150 µM oleic and 150 µM palmitic acid was conjugated with 2% BSA (0.3 mM).

[2] = cited from earlier work
[3] = tested on: HFD-fed C57BL6/J mice (mouse model of NAFLD); experiment: Diet-induced (HFD) mouse model of NAFLD, TAK-448 infused by subcutaneous mini-osmotic pump; format: in vivo; details: for liver steatosis / lipid accumulation (H&E, Oil Red O): 0.3 nmol/hour s.c. mini-osmotic pump, vs vehicle (PBS); for liver steatosis / lipid accumulation (H&E, Oil Red O) / insulin resistance / sensitivity (ITT) / glucose tolerance (GTT) / fasting glucose / body weight: 4 weeks; for insulin resistance / sensitivity (ITT) / glucose tolerance (GTT) / fasting glucose / body weight: 0.3 nmol/hour s.c. pump; for insulin resistance / sensitivity (ITT): 6 h fast, insulin 0.5 U/kg i.p.; for glucose tolerance (GTT): 12 h fast, D-glucose 1 g/kg i.p.; for liver triglycerides (TGs) / serum/blood glycerol: endpoint
Experimental: Animals were treated for 4 weeks unless otherwise indicated and maintained on RD or HFD (total of 10 weeks). Blood glucose measurements were obtained via a small nick in the lateral tail vein using a glucometer (Bayer ContourTM). For glucose tolerance tests, mice were fasted for 12 hours and then injected intraperitoneally with D-glucose (1 g/kg). For the insulin tolerance tests, mice were fasted for 6 hours and then injected intraperitoneally with insulin (0.5 U/kg; Novo NordiskTM). Mice where individually housed in an 8-chamber Clinical Laboratory Animal Monitoring System (CLAMS) with controlled light and feeding. Carbon dioxide output, oxygen update, respiratory exchange ratio (RER), ambulatory movement, and feeding were measured over a 4-day period. Serum insulin levels were measured using the Ultra-Sensitive Mouse Insulin ELISA Kit (Crystal ChemTM). Serum glycerol levels were measured using the Glycerol Assay Kit (SigmaTM). Liver triglycerides were measured using the triglyceride quantification kit (MBLTM international Catalog # JM-K622-500). Free fatty acids were measured using the Free Fatty Acid Quantification Kit (SigmaTM, […]). ALT levels were measured using Liquid ALT (SGPT) Reagent set according to the manufacturer's instructions; cholesterol levels were measured using the Cholesterol set according to the manufacturer's instructions. Immunoblot assays were conducted according to known methods. Mouse liver tissue or primary hepatocytes were homogenized in RIPA lysis buffer containing protease inhibitors and centrifuged at 4° C.; the protein expression in lysates was analyzed by Western blot analysis. Protein was separated using SDS-PAGE and probed using the following antibodies: […] Mouse anti-β actin (1:5000, Thermo Fisher ScientificTM) or anti-vinculin (1:1000, Bio-RadTM) were used for loading control. Protein was then incubated for 1 hour in horseradish peroxidase (HRP)-conjugated rabbit (1:2500, Cell Signaling TechnologyTM) or mouse (1:2500, Cell Signaling TechnologyTM) secondary antibody. Blots were imaged by chemiluminescence with ChemiDocTM Touch imaging system (Bio-RadTM), SuperSignal and West Dura Extended Duration Substrate (Thermo ScientificTM). Protein levels were quantified using Image Lab Software (Bio-RadTM). Total RNA was extracted from cells using the Trizol method. Reverse transcription was done according to manufacturer's instructions using iScript RT Supermix (Bio-RadTM). Gene expression was determined using SYBR green real-time qPCR (RT-qPCR) as described previously using primers shown in Table 7, below. The following primers were purchased from BioRadTM (validated […] primers): Srebpl, Aqp3, Aqp9, Gpat2, Agpat2, Dgat1, Dgat2, Mogat1, Slc2a2, […]1, Sod1, Sod2, Gss, Ucp2, and Gpam. Il-13 was purchased from QiagenTM (QT00099554). Primers for Srebf1, Aqp3, Aqp9, Gpat2, Agpat2, Dgat1, Dgat2, Mogat1, Slc2a2, Lgpat1, Sod1, Sod2, Gss, Ucp2, and Gpam are pre-made and were purchased from BioRadTM. Liver tissue was immediately fixed in 10% neutral formalin after mice were euthanized. Tissue was processed for histology by the Research Pathology Services at Rutgers University. Livers were sectioned into 5 μm thick sections and stained with hematoxylin and eosin. Sections were examined by light microscopy for histopathological changes. C57BL/6J mice fed high fat diet (HFD) or control regular diet (RD) for 12 weeks (4-5/group). TAK-448 (TAK) or Vehicle (Veh i.e., PBS controls) were administered for 4 weeks using an ALZET mini-osmotic pump implanted subcutaneously. Steatosis is shown by hematoxylin and eosin stained mouse livers (lipid accumulation, small white droplets, arrowheads) and by Oil Red O staining of lipids (red dots) in control livers (FIG. 1A). This was prevented in the TAK-448 treated group (FIG. 1A). […]

[4] = HFD livers, RT-qPCR, vs vehicle
[5] = HFD livers, RT-qPCR, vs vehicle, listed as TAK
[6] = HFD livers, western blot, vs vehicle
[7] = HFD mice, vs vehicle, listed as TAK
[8] = HFD mice, 4 weeks treatment, vs vehicle
[9] = HFD mice, 4 weeks treatment, vs vehicle, listed as TAK
[10] = HFD mice, 4 weeks treatment, vs vehicle, listed as TAK-488
[11] = treated vs untreated mice, 4 weeks post treatment

Q: What does the source list for `CNC(=N)NCCC[C@H](NC(=O)[C@H](CC(C)C)NC(=O)NNC(=O)[C@H](Cc1ccccc1)NC(=O)[C@@H](NC(=O)[C@H](CC(N)=O)NC(=O)[C@@H]1C[C@@H](O)CN1C(=O)[C@@H](Cc1ccc(O)cc1)NC(C)=O)[C@@H](C)O)C(=O)N[C@@H](Cc1c[nH]c2ccccc12)C(N)=O.O=C(O)C(F)(F)F` [TAK-448]?
A: TG accumulation in FFA loaded hepatocytes [1]: substantially decreased; half-life in the blood [2]: 4 h; hepatic expression of PPARy, CD36 and MOGAT1 ([3]; HFD livers, RT-qPCR and western blot, vs vehicle, listed as TAK): significantly reduced; also recorded: inhibited; Gpam expression in liver [3, 4]: significantly reduced; Lfabp1 and Gyk1 expression in liver [3, 4]: not significant; Srebf1 expression in liver [3, 4]: not significant; liver markers for oxidative stress (Ucp2, Gss) [3, 4]: lower levels; liver markers for fibrosis (Tgfb1, Timp1) [3, 5]: lower levels; also recorded: reduction; liver pro-inflammatory markers (Ip10, Mcp1) [3, 5]: lower levels; also recorded: reduction; Fasn expression in liver [3, 6]: significant decrease; phosphorylation of AMPK in liver [3, 6]: induced phosphorylation; liver steatosis / lipid accumulation (H&E, Oil Red O) ([3]; HFD mice): prevented; liver steatosis / lipid accumulation (H&E, Oil Red O) ([3]; HFD mice, listed as TAK): protected against; also recorded: suppressed; insulin resistance / sensitivity (ITT) ([3]; HFD mice, vs vehicle): protected against; also recorded: prevented insulin resistance; insulin resistance / sensitivity (ITT) [3, 7]: insulin sensitive; also recorded: improved; glucose tolerance (GTT) ([3]; HFD mice, vs vehicle): prevented glucose intolerance; glucose tolerance (GTT) [3, 7]: glucose tolerant; also recorded: improved; fasting glucose ([3]; HFD mice, vs vehicle): prevented the rise; body weight [3, 7]: significantly lower; also recorded: prevented a gain; fasting glucose [3, 7]: lower; body weight ([3]; HFD mice, vs vehicle, listed as TAK-488): lowering; food intake (CLAMS) ([3]; HFD mice, 4 weeks post treatment, vs vehicle): without a change; food intake (CLAMS) ([3]; HFD mice, 4 weeks post treatment, vs vehicle, listed as TAK): without a change; also recorded: without changing; food intake (CLAMS) ([3]; HFD mice, 4 weeks post treatment, vs vehicle, listed as Takeda-488): no difference; epididymal white adipose tissue (eWAT) [3, 8]: significant decrease; inguinal white adipose tissue (iWAT) [3, 8]: significant decrease; peripheral fat accumulation / adipose mass [3, 8]: protected against; serum ALT [3, 8]: significantly lower; serum/blood free fatty acids (FFA) [3, 8]: prevented; peripheral fat accumulation / adipose mass [3, 9]: lowered; serum TGs [3, 9]: significant decrease; also recorded: reduced; serum cholesterol [3, 9]: significantly lower; also recorded: reduced; serum/blood free fatty acids (FFA) [3, 9]: significantly lower; also recorded: reduced; peripheral fat accumulation / adipose mass [3, 10]: lowering; serum/blood free fatty acids (FFA) [3, 10]: lowering; liver triglycerides (TGs) [3, 8]: prevented; serum/blood glycerol [3, 8]: prevented; liver triglycerides (TGs) [3, 9]: significant decrease; serum/blood glycerol [3, 9]: significantly lower; liver triglycerides (TGs) [3, 10]: lowering; serum/blood glycerol [3, 10]: lowering; heat production (CLAMS) [3, 11]: no differences; respiratory exchange ratio (RER, CLAMS) [3, 11]: no differences
